Results from article PMC4407906, “Structure-Guided Engineering of Molinate Hydrolase for the Degradation of Thiocarbamate Pesticides” (PLoS ONE, 2015).
Values belong to the molecule of their own block, whether it stands above or below them.

What was measured:
[1] = molecular target: T1, molinate hydrolase (Gulosibacter molinativorax, UniProt G2XLB0); test: UV spectrophotometric molinate depletion at […] nm, […] 2-mercaptoethanol; assay type: biochemical
T1 construct: gene molA; recombinant protein with a 32 amino acid purification tag
T1 sequence (G2XLB0 entry or part of it): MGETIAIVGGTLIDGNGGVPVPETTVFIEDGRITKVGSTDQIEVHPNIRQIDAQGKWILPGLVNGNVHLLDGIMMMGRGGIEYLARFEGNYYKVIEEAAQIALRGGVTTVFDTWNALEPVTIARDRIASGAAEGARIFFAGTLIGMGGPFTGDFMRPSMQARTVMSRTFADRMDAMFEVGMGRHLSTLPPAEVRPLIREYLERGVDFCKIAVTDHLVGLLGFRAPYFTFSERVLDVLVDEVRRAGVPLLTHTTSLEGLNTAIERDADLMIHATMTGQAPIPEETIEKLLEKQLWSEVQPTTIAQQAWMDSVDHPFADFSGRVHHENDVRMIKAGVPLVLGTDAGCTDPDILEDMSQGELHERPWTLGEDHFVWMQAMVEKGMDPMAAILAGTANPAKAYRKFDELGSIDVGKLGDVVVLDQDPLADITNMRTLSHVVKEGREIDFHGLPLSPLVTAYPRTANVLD

[2] = molecular target: T1, molinate hydrolase; test: UV spectrophotometric molinate depletion at […] nm, […] L-cysteine; assay type: biochemical
[3] = molecular target: T1, molinate hydrolase; test: HPLC assay of molinate depletion with purified recombinant enzyme; competitive inhibition fit; assay type: biochemical
[4] = molecular target: the molecule itself; test: crystal structure; recombinant molinate hydrolase co-crystallised with ZnCl2 (4 or 8 mM), vapour diffusion at 20°C, sodium citrate pH 5.6-6.4, 2-propanol, PEG 4000, glycerol; monoclinic C2 with 8 monomers and orthorhombic with 4 monomers in the asymmetric unit

Molecule: OCCS [2-mercaptoethanol]
UV spectrophotometric molinate depletion at 220 nm, 3 mM 2-mercaptoethanol [1]: other thiolated compounds, such as β-mercaptoethanol, also inhibited molinate hydrolase

Molecule: N[C@@H](CS)C(=O)O [L-cysteine]
UV spectrophotometric molinate depletion at 220 nm, 1.5 mM L-cysteine [2]: cysteine also inhibits the enzyme activity, while serine and methionine do not

Ki [3]: 300 µM
Molecule: CCS [ethanethiol]

B1: recombinant molinate hydrolase (enzyme, Gulosibacter molinativorax ON4T)
chain: GETIAIVGGTLIDGNGGVPVPETTVFIEDGRITKVGSTDQIEVHPNIRQIDAQGKWILPGLVNGNVHLLDGIMMMGRGGIEYLARFEGNYYKVIEEAAQIALRGGVTTVFDTWNALEPVTIARDRIASGAAEGARIFFAGTLIGMGGPFTGDFMRPSMQARTVMSRTFADRMDAMFEVGMGRHLSTLPPAEVRPLIREYLERGVDFCKIAVTDHLVGLLGFRAPYFTFSERVLDVLVDEVRRAGVPLLTHTTSLEGLNTAIERDADLMIHATMTGQAPIPEETIEKLLEKQLWSEVQPTTIAQQAWMDSVDHPFADFSGRVHHENDVRMIKAGVPLVLGTDAGCTDPDILEDMSQGELHERPWTLGEDHFVWMQAMVEKGMDPMAAILAGTANPAKAYRKFDELGSIDVGKLGDVVVLDQDPLADITNMRTLSHVVKEGREIDFHGLPLSPLVTAYPRTANVLD
notes: molinate hydrolase (MolA) from Gulosibacter molinativorax ON4T; 1984 residues expected for 4 monomers (496 each, tag included); One Zn2+ per monomer (occupancy set to 0.4) in the deposited structure; A SeMet derivative (from E. coli B834 (DE3), metal-depleted) was also solved, with the same overall structure; also called MolA; source: E. coli JM109 or B834 (DE3), vector pASKmolA, purified …
stoichiometry N [4]: 4
